“And” between values parts separate entries of the source, which are not always exact repeats. Equal values may be shown once. Toxic doses and inconclusive results are not listed. No stated cut-off is given here; in the data, active means T/C of 150% or more; inactive means T/C below 125%.
Test system: L1210 leukemia ip in BDF1 mice, survival T/C
Assay: NCI In Vivo Anticancer Drug Screen. Data for tumor model L1210 Leukemia (intraperitoneal) in B6D2F1 (BDF1) mice
Details: endpoint: mean survival time, higher = longer survival
Outline: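 Transplantable tumor model; survival measured in treated vs vehicle control mice. Value = treated/control.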

[1] = dose: 100.0 mg/kg/injection, schedule: Q01DX009 (ip), vehicle: saline
[2] = dose: 200.0 mg/kg/injection, schedule: Q01DX009 (ip), vehicle: saline
[3] = dose: 100.0 mg/kg/injection, schedule: Q01DX009 (ip), vehicle: saline with Tween-80
[4] = dose: 100.0 mg/kg/injection, schedule: Q01DX001 (ip), vehicle: Klucel (hydroxypropylcellulose) (HPC)
[5] = dose: 100.0 mg/kg/injection, schedule: Q01DX009 (ip), vehicle: Klucel (hydroxypropylcellulose) (HPC)
[6] = dose: 100.0 mg/kg/injection, schedule: Q04DX002 (ip), vehicle: Klucel (hydroxypropylcellulose) (HPC)
[7] = dose: 100.0 mg/kg/injection, schedule: Q04DX003 (ip), vehicle: Klucel (hydroxypropylcellulose) (HPC)
[8] = dose: 200.0 mg/kg/injection, schedule: Q01DX001 (ip), vehicle: Klucel (hydroxypropylcellulose) (HPC)
[9] = dose: 200.0 mg/kg/injection, schedule: Q01DX009 (ip), vehicle: Klucel (hydroxypropylcellulose) (HPC)
[10] = dose: 200.0 mg/kg/injection, schedule: Q04DX002 (ip), vehicle: Klucel (hydroxypropylcellulose) (HPC)
[11] = dose: 200.0 mg/kg/injection, schedule: Q04DX003 (ip), vehicle: Klucel (hydroxypropylcellulose) (HPC)
[12] = dose: 400.0 mg/kg/injection, schedule: Q01DX001 (ip), vehicle: Klucel (hydroxypropylcellulose) (HPC)
[13] = dose: 400.0 mg/kg/injection, schedule: Q01DX009 (ip), vehicle: Klucel (hydroxypropylcellulose) (HPC)
[14] = dose: 400.0 mg/kg/injection, schedule: Q04DX003 (ip), vehicle: Klucel (hydroxypropylcellulose) (HPC)
[15] = dose: 100.0 mg/kg/injection, schedule: Q04DX003 (ip), vehicle: saline with Tween-80
[16] = dose: 200.0 mg/kg/injection, schedule: Q01DX009 (ip), vehicle: saline with Tween-80
[17] = dose: 200.0 mg/kg/injection, schedule: Q04DX003 (ip), vehicle: saline with Tween-80
[18] = dose: 400.0 mg/kg/injection, schedule: Q01DX009 (ip), vehicle: saline with Tween-80
[19] = dose: 400.0 mg/kg/injection, schedule: Q04DX003 (ip), vehicle: saline with Tween-80
[20] = dose: 100.0 mg/kg/injection, schedule: Q04DX003 (ip), vehicle: saline
[21] = dose: 200.0 mg/kg/injection, schedule: Q04DX003 (ip), vehicle: saline
[22] = dose: 400.0 mg/kg/injection, schedule: Q04DX003 (ip), vehicle: saline

Measured: T/C

Cc1scc[n+]1Cc1ccccc1[N+](=O)[O-]
inactive: dose: 5.0 mg/kg/injection, schedule: Q01DX001 (ip), vehicle: saline 109 % of control | dose: 10.0 mg/kg/injection, schedule: Q01DX001 (ip), vehicle: saline 109 % of control | dose: 20.0 mg/kg/injection, schedule: Q01DX001 (ip), vehicle: saline 105 % of control | dose: 40.0 mg/kg/injection, schedule: Q01DX001 (ip), vehicle: saline 109 % of control | dose: 80.0 mg/kg/injection, schedule: Q01DX001 (ip), vehicle: saline 100 % of control

O=C1c2ccccc2C(=O)N1Cc1nc(=S)[nH][nH]1
inactive: dose: 100.0 mg/kg/injection, schedule: Q01DX001 (ip), vehicle: saline with Tween-80 100 % of control | dose: 200.0 mg/kg/injection, schedule: Q01DX001 (ip), vehicle: saline with Tween-80 97 % of control | dose: 400.0 mg/kg/injection, schedule: Q01DX001 (ip), vehicle: saline with Tween-80 97 % of control

N#CC(C#N)=C1SCS1
inactive: dose: 6.25 mg/kg/injection, schedule: Q04DX002 (ip), vehicle: saline with Tween-80 103 % of control | dose: 12.5 mg/kg/injection, schedule: Q04DX002 (ip), vehicle: saline with Tween-80 111 % of control | dose: 25.0 mg/kg/injection, schedule: Q04DX002 (ip), vehicle: saline with Tween-80 114 % of control

CCOC(=O)N1CCOCC1
inactive: [1] 100 % of control | [2] 97 % of control | dose: 400.0 mg/kg/injection, schedule: Q01DX009 (ip), vehicle: saline 96 % of control

O=C(Cn1cc[n+](CC(=O)c2ccccc2)c1)c1ccccc1
inactive: dose: 25.0 mg/kg/injection, schedule: Q01DX009 (ip), vehicle: saline with Tween-80 98 % of control | dose: 50.0 mg/kg/injection, schedule: Q01DX009 (ip), vehicle: saline with Tween-80 90 % of control | [3] 102 % of control

O=C(Nc1ccccc1C(F)(F)F)c1ccc(F)cc1
inactive: [4] 99 % of control | [5] 95 % of control and 103 % of control | [6] 98 % of control and 121 % of control | [7] 105 % of control | [8] 95 % of control | [9] 94 % of control and 95 % of control | [10] 100 % of control and 101 % of control | [11] 100 % of control | [12] 104 % of control | [13] 95 % of control and 97 % of control | dose: 400.0 mg/kg/injection, schedule: Q04DX002 (ip), vehicle: Klucel (hydroxypropylcellulose) (HPC) 96 % of control and 100 % of control | [14] 113 % of control

O=C(NC(=S)c1ccc[nH]1)Nc1ccccc1
inactive: dose: 50.0 mg/kg/injection, schedule: Q01DX009 (ip), vehicle: saline 93 % of control | [1] 90 % of control | [2] 90 % of control

CCOc1ccc(/C=N/NC(=O)Cc2cccc3ccccc23)cc1OC
inactive: [5] 95 % of control | [9] 98 % of control | [13] 97 % of control

CS(=O)(=O)OCC(OS(C)(=O)=O)C(COS(C)(=O)=O)OS(C)(=O)=O (stereo not given)
inactive: [3] 91 % of control | [15] 92 % of control | [16] 100 % of control | [17] 96 % of control | [18] 96 % of control | [19] 96 % of control

O=C(Nc1ccc(C(=O)O)cc1)Nc1cccc(F)c1
inactive: dose: 50.0 mg/kg/injection, schedule: Q01DX009 (ip), vehicle: Klucel (hydroxypropylcellulose) (HPC) 102 % of control | [5] 111 % of control | [6] 95 % of control | [10] 98 % of control

Cc1ccc(Nc2cc(N)nc(N)n2)cc1Cl
inactive: dose: 100.0 mg/kg/injection, schedule: Q01DX Z (ip), vehicle: methylcellulose (MC) 101 % of control | dose: 200.0 mg/kg/injection, schedule: Q01DX Z (ip), vehicle: methylcellulose (MC) 89 % of control

COc1ccc(C=Nc2ccccc2N=Cc2ccc(OC)c(OC)c2)cc1OC
inactive: [3] 106 % of control | [15] 96 % of control | [16] 97 % of control | [17] 93 % of control | [18] 106 % of control | [19] 93 % of control

O=C(Nc1ccc(C2=NCCN2)cc1)c1ccc(Br)c(C(=O)Nc2ccc(C3=NCCN3)cc2)c1
inactive: dose: 15.0 mg/kg/injection, schedule: Q01DX Z (ip), vehicle: saline 101 % of control | dose: 20.0 mg/kg/injection, schedule: Q01DX Z (ip), vehicle: water 102 % of control | dose: 30.0 mg/kg/injection, schedule: Q01DX Z (ip), vehicle: saline 117 % of control | dose: 30.0 mg/kg/injection, schedule: Q01DX Z (ip), vehicle: water 120 % of control

CSCc1ccc(N)cc1
inactive: [5] 105 % of control | [7] 103 % of control | [9] 112 % of control | [11] 92 % of control | [13] 101 % of control | [14] 98 % of control

Cc1noc(-n2c(C)ccc2C)c1C
inactive: [20] 97 % of control | [21] 100 % of control | [22] 95 % of control

CC(=O)Nc1ccc(NC(=O)c2ccc(F)cc2)cc1
inactive: dose: 100.0 mg/kg/injection, schedule: Q01DX009 (ip), vehicle: gum acacia 91 % of control | dose: 200.0 mg/kg/injection, schedule: Q01DX009 (ip), vehicle: gum acacia 89 % of control | dose: 400.0 mg/kg/injection, schedule: Q01DX009 (ip), vehicle: gum acacia 102 % of control

Brc1ccc2c(c1)/C(=C/c1ccccc1)c1ccccc1-2
inactive: dose: 25.0 mg/kg/injection, schedule: Q04DX002 (ip), vehicle: DMSO 92 % of control | dose: 50.0 mg/kg/injection, schedule: Q04DX002 (ip), vehicle: DMSO 95 % of control

O=S1(=O)CCC/C1=C\c1ccccc1
inactive: [4] 121 % of control | [8] 103 % of control | [12] 101 % of control

COC(=O)C1Cc2c([nH]c3ccccc23)CN1 (stereo not given)
inactive: dose: 9.0 mg/kg/injection, schedule: Q01DX009 (ip), vehicle: saline 95 % of control | dose: 9.0 mg/kg/injection, schedule: Q04DX003 (ip), vehicle: saline 100 % of control | dose: 18.0 mg/kg/injection, schedule: Q01DX009 (ip), vehicle: saline 101 % of control | dose: 18.0 mg/kg/injection, schedule: Q04DX003 (ip), vehicle: saline 98 % of control | dose: 37.0 mg/kg/injection, schedule: Q01DX009 (ip), vehicle: saline 105 % of control | dose: 37.0 mg/kg/injection, schedule: Q04DX003 (ip), vehicle: saline 93 % of control

c1ccc(N=Nc2cccnn2)cc1
inactive: dose: 50.0 mg/kg/injection, schedule: Q04DX002 (ip), vehicle: saline with Tween-80 97 % of control | dose: 100.0 mg/kg/injection, schedule: Q04DX002 (ip), vehicle: saline with Tween-80 105 % of control | dose: 200.0 mg/kg/injection, schedule: Q04DX002 (ip), vehicle: saline with Tween-80 94 % of control

COc1ccc(/C=C\C(=O)/C=C/c2ccc(OC)cc2)cc1
inactive: [5] 98 % of control | [7] 94 % of control | [9] 98 % of control | [11] 94 % of control | [13] 88 % of control | [14] 100 % of control

COc1ccc(CCN)cc1
inactive: dose: 25.0 mg/kg/injection, schedule: Q04DX002 (ip), vehicle: saline 101 % of control | dose: 50.0 mg/kg/injection, schedule: Q04DX002 (ip), vehicle: saline 97 % of control | dose: 100.0 mg/kg/injection, schedule: Q04DX002 (ip), vehicle: saline 97 % of control and 109 % of control

NC1CCCCC1
inactive: [20] 109 % of control | [21] 102 % of control | [22] 100 % of control
